Measurements as given in US11180462B2, “Microbiocidal oxadiazole derivatives” (SYNGENTA PARTICIPATIONS AG, priority 2015, dated 2021).

Tests used:
[1] = tested on: Puccinia recondita f. Sp. Tritici; test: Fungicidal activity against Puccinia recondita f. sp. tritici / wheat / leaf disc curative (brown rust); assay type: in vivo; settings: foliar, 24 h, 200 ppm in the applied formulation, wheat leaf segments, curative (applied 1 day after inoculation), compared to untreated control leaf disks, read-out: disease control
Method in brief: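 Segments of wheat cv. Kanzler were laid on agar and inoculated with a spore suspension of the rust, then held in darkness at 19° C and 75% relative humidity. One day later the water-diluted formulated compound was applied, with incubation continued under a 12 h light/dark cycle.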

[2] = tested on: Glomerella lagenarium (Colletotrichum lagenarium); test: Fungicidal activity against Glomerella lagenarium (Colletotrichum lagenarium) liquid culture / cucumber / preventative (anthracnose); assay type: cell-based; settings: Colletotrichum orbiculare; 20 ppm in the applied formulation; liquid culture (PDB), growth inhibition measured photometrically after 3 to 4 days; compared to untreated control; read-out: disease control
Method in brief: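 Percent activity against the untreated check was derived from photometric growth measurements made 2 to 7 days after conidia in potato dextrose broth were combined with compound at 20 ppm. Cultures were kept dark at 24 °C and 96% humidity.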

Phakopsora Pachyrhizi = test: Fungicidal activity against Phakopsora pachyrhizi / soybean / leaf disc preventative (Asian soybean rust); assay type: in vivo; settings: foliar, 200 ppm in the applied formulation, soybean leaf disks, compared to untreated control leaf disks, read-out: disease control
Method in brief: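 Scored 12 to 14 days post-application as percent control relative to untreated check discs, rust spores were sprayed under the disc one day after compound treatment. Incubation: 20°C, 75% rh, first 24–36 h in darkness, then 12 h daily light; discs kept on water agar.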

[3] = tested on: Puccinia recondita f. Sp. Tritici; test: Fungicidal activity against Puccinia recondita f. sp. tritici / wheat / leaf disc preventative (brown rust); assay type: in vivo; settings: foliar, 200 ppm in the applied formulation, wheat leaf segments, preventative, compared to untreated control leaf disks, read-out: disease control
Method in brief: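 200 ppm spray on wheat cv. Kanzler leaf segments; spore inoculation +1 day; 19° C., 75% rh, 12 h/12 h light cycle; single rating of % control vs untreated at 7 to 9 days.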

C#CCN(Cc1ccc(-c2noc(C(F)(F)F)n2)cc1)C(=O)C1CC1(F)F (stereo not shown) [Compound 1.157, 2,2-difluoro-N-prop-2-ynyl-N-[[4-[5-(trifluoromethyl)-1,2,4-oxadiazol-3-yl]phenyl]methyl]-cyclopropane-carboxamide]
≥ 80%: pest or weed control at 200 ppm [1] | inhibition of growth at 20 ppm [2] | pest or weed control at 200 ppm (Phakopsora Pachyrhizi) | pest or weed control at 200 ppm [3]

C#CCN(Cc1ccc(-c2noc(C(F)(F)F)n2)cc1)C(=O)CCC=C [Compound 1.159, N-prop-2-ynyl-N-[[4-[5-(trifluoromethyl)-1,2,4-oxadiazol-3-yl]phenyl]methyl]-pent-4-enamide]
≥ 80%: pest or weed control at 200 ppm [1] | inhibition of growth at 20 ppm [2] | pest or weed control at 200 ppm (Phakopsora Pachyrhizi) | pest or weed control at 200 ppm [3]

C#CCN(Cc1ccc(-c2noc(C(F)(F)F)n2)cc1)C(=O)C(C)CC(C)=O (stereo not shown) [Compound 1.164, 2-methyl-4-oxo-N-prop-2-ynyl-N-[[4-[5-(trifluoromethyl)-1,2,4-oxadiazol-3-yl]phenyl]methyl]-pentanamide]
≥ 80%: pest or weed control at 200 ppm [1] | inhibition of growth at 20 ppm [2] | pest or weed control at 200 ppm (Phakopsora Pachyrhizi) | pest or weed control at 200 ppm [3]

C#CCN(Cc1ccc(-c2noc(C(F)(F)F)n2)cc1)C(=O)CCC [Compound 1.165, N-prop-2-ynyl-N-[[4-[5-(trifluoromethyl)-1,2,4-oxadiazol-3-yl]phenyl]methyl]-butanamide]
≥ 80%: pest or weed control at 200 ppm [1] | inhibition of growth at 20 ppm [2] | pest or weed control at 200 ppm (Phakopsora Pachyrhizi) | pest or weed control at 200 ppm [3]

C#CCN(Cc1ccc(-c2noc(C(F)(F)F)n2)cc1)C(=O)CC1CC1 [Compound 1.167, 2-cyclopropyl-N-prop-2-ynyl-N-[[4-[5-(trifluoromethyl)-1,2,4-oxadiazol-3-yl]phenyl]methyl]-acetamide]
≥ 80%: pest or weed control at 200 ppm [1] | inhibition of growth at 20 ppm [2] | pest or weed control at 200 ppm (Phakopsora Pachyrhizi) | pest or weed control at 200 ppm [3]

C#CCN(Cc1ccc(-c2noc(C(F)(F)F)n2)cc1)C(=O)C1CCCC1 [Compound 1.168, N-prop-2-ynyl-N-[[4-[5-(trifluoromethyl)-1,2,4-oxadiazol-3-yl]phenyl]methyl]-cyclopentane-carboxamide]
≥ 80%: pest or weed control at 200 ppm [1] | inhibition of growth at 20 ppm [2] | pest or weed control at 200 ppm (Phakopsora Pachyrhizi) | pest or weed control at 200 ppm [3]

C#CCN(Cc1ccc(-c2noc(C(F)(F)F)n2)cc1)C(=O)CCC(F)(F)F [Compound 1.169, 4,4,4-trifluoro-N-prop-2-ynyl-N-[[4-[5-(trifluoromethyl)-1,2,4-oxadiazol-3-yl]phenyl]methyl]-butanamide]
≥ 80%: pest or weed control at 200 ppm [1] | inhibition of growth at 20 ppm [2] | pest or weed control at 200 ppm (Phakopsora Pachyrhizi) | pest or weed control at 200 ppm [3]

C#CCN(Cc1ccc(-c2noc(C(F)(F)F)n2)cc1)C(=O)Cc1cccnc1 [Compound 1.170, N-prop-2-ynyl-2-(3-pyridyl)-N-[[4-[5-(trifluoromethyl)-1,2,4-oxadiazol-3-yl]phenyl]methyl]-acetamide]
≥ 80%: pest or weed control at 200 ppm [1] | inhibition of growth at 20 ppm [2] | pest or weed control at 200 ppm (Phakopsora Pachyrhizi) | pest or weed control at 200 ppm [3]

C#CCN(Cc1ccc(-c2noc(C(F)(F)F)n2)cc1)C(=O)C1CCOC1 (stereo not shown) [Compound 1.171, N-prop-2-ynyl-N-[[4-[5-(trifluoromethyl)-1,2,4-oxadiazol-3-yl]phenyl]methyl]-tetrahydrofuran-3-carboxamide]
≥ 80%: pest or weed control at 200 ppm [1] | inhibition of growth at 20 ppm [2] | pest or weed control at 200 ppm (Phakopsora Pachyrhizi) | pest or weed control at 200 ppm [3]

C#CCN(Cc1ccc(-c2noc(C(F)(F)F)n2)cc1)C(=O)CCOC [Compound 1.173, 3-methoxy-N-prop-2-ynyl-N-[[4-[5-(trifluoromethyl)-1,2,4-oxadiazol-3-yl]phenyl]methyl]-propanamide]
≥ 80%: pest or weed control at 200 ppm [1] | inhibition of growth at 20 ppm [2] | pest or weed control at 200 ppm (Phakopsora Pachyrhizi) | pest or weed control at 200 ppm [3]

C#CCN(Cc1ccc(-c2noc(C(F)(F)F)n2)cc1)C(=O)CC(C)C [Compound 1.175, 3-methyl-N-prop-2-ynyl-N-[[4-[5-(trifluoromethyl)-1,2,4-oxadiazol-3-yl]phenyl]methyl]-butanamide]
≥ 80%: pest or weed control at 200 ppm [1] | inhibition of growth at 20 ppm [2] | pest or weed control at 200 ppm (Phakopsora Pachyrhizi) | pest or weed control at 200 ppm [3]

C#CCN(Cc1ccc(-c2noc(C(F)(F)F)n2)cc1)C(=O)C(C)(C)CCl [Compound 1.176, 3-chloro-2,2-dimethyl-N-prop-2-ynyl-N-[[4-[5-(trifluoromethyl)-1,2,4-oxadiazol-3-yl]phenyl]methyl]-propanamide]
≥ 80%: pest or weed control at 200 ppm [1] | inhibition of growth at 20 ppm [2] | pest or weed control at 200 ppm (Phakopsora Pachyrhizi) | pest or weed control at 200 ppm [3]

C#CCN(Cc1ccc(-c2noc(C(F)(F)F)n2)cc1)C(=O)CC(F)(F)F [Compound 1.177, 3,3,3-trifluoro-N-prop-2-ynyl-N-[[4-[5-(trifluoromethyl)-1,2,4-oxadiazol-3-yl]phenyl]methyl]-propanamide]
≥ 80%: pest or weed control at 200 ppm [1] | inhibition of growth at 20 ppm [2] | pest or weed control at 200 ppm (Phakopsora Pachyrhizi) | pest or weed control at 200 ppm [3]

C#CCN(Cc1ccc(-c2noc(C(F)(F)F)n2)cc1)C(=O)C1CCC1 [Compound 1.178, N-prop-2-ynyl-N-[[4-[5-(trifluoromethyl)-1,2,4-oxadiazol-3-yl]phenyl]methyl]-cyclobutane-carboxamide]
≥ 80%: pest or weed control at 200 ppm [1] | inhibition of growth at 20 ppm [2] | pest or weed control at 200 ppm (Phakopsora Pachyrhizi) | pest or weed control at 200 ppm [3]

C#CCN(Cc1ccc(-c2noc(C(F)(F)F)n2)cc1)C(=O)CC=CC [Compound 1.180, N-prop-2-ynyl-N-[[4-[5-(trifluoromethyl)-1,2.4-oxadiazol-3-yl]phenyl]methyl]-pent-3-enamide]
≥ 80%: pest or weed control at 200 ppm [1] | inhibition of growth at 20 ppm [2] | pest or weed control at 200 ppm (Phakopsora Pachyrhizi) | pest or weed control at 200 ppm [3]

C#CCN(Cc1ccc(-c2noc(C(F)(F)F)n2)cc1)C(=O)C1CC1C (stereo not shown) [Compound 1.181, 2-methyl-N-prop-2-ynyl-N-[[4-[5-(trifluoromethyl)-1,2,4-oxadiazol-3-yl]phenyl]methyl]-cyclopropane-carboxamide]
≥ 80%: pest or weed control at 200 ppm [1] | inhibition of growth at 20 ppm [2] | pest or weed control at 200 ppm (Phakopsora Pachyrhizi) | pest or weed control at 200 ppm [3]

C#CCN(Cc1ccc(-c2noc(C(F)(F)F)n2)cc1)C(=O)C(C)(C)C [Compound 1.182, 2,2-dimethyl-N-prop-2-ynyl-N-[[4-[5-(trifluoromethyl)-1,2,4-oxadiazol-3-yl]phenyl]methyl]-propanamide]
≥ 80%: pest or weed control at 200 ppm [1] | inhibition of growth at 20 ppm [2] | pest or weed control at 200 ppm (Phakopsora Pachyrhizi) | pest or weed control at 200 ppm [3]

C#CCN(Cc1ccc(-c2noc(C(F)(F)F)n2)cc1)C(=O)C1(C)CC1 [Compound 1.183, 1-methyl-N-prop-2-ynyl-N-[[4-[5-(trifluoromethyl)-1,2,4-oxadiazol-3-yl]phenyl]methyl]-cyclopropane-carboxamide]
≥ 80%: pest or weed control at 200 ppm [1] | inhibition of growth at 20 ppm [2] | pest or weed control at 200 ppm (Phakopsora Pachyrhizi) | pest or weed control at 200 ppm [3]

C#CCN(Cc1ccc(-c2noc(C(F)(F)F)n2)cc1)C(=O)CC [Compound 1.185, N-prop-2-ynyl-N-[[4-[5-(trifluoromethyl)-1,2,4-oxadiazol-3-yl]phenyl]methyl]-propanamide]
≥ 80%: pest or weed control at 200 ppm [1] | inhibition of growth at 20 ppm [2] | pest or weed control at 200 ppm (Phakopsora Pachyrhizi) | pest or weed control at 200 ppm [3]

C#CCN(Cc1ccc(-c2noc(C(F)(F)F)n2)cc1)C(=O)C(=C)C [Compound 1.187, 2-methyl-N-prop-2-ynyl-N-[[4-[5-(trifluoromethyl)-1,2,4-oxadiazol-3-yl]phenyl]methyl]-prop-2-enamide]
≥ 80%: pest or weed control at 200 ppm [1] | inhibition of growth at 20 ppm [2] | pest or weed control at 200 ppm (Phakopsora Pachyrhizi) | pest or weed control at 200 ppm [3]

C#CCN(Cc1ccc(-c2noc(C(F)(F)F)n2)cc1)C(=O)C1CC1(C)C (stereo not shown) [Compound 1.189, 2,2-dimethyl-N-prop-2-ynyl-N-[[4-[5-(trifluoromethyl)-1,2.4-oxadiazol-3-yl]phenyl]methyl]-cyclopropane-carboxamide]
≥ 80%: pest or weed control at 200 ppm [1] | inhibition of growth at 20 ppm [2] | pest or weed control at 200 ppm (Phakopsora Pachyrhizi) | pest or weed control at 200 ppm [3]

C#CCN(Cc1ccc(-c2noc(C(F)(F)F)n2)cc1)C(=O)C(C)CC (stereo not shown) [Compound 1.191, 2-methyl-N-prop-2-ynyl-N-[[4-[5-(trifluoromethyl)-1,2,4-oxadiazol-3-yl]phenyl]methy]-butanamide]
≥ 80%: pest or weed control at 200 ppm [1] | inhibition of growth at 20 ppm [2] | pest or weed control at 200 ppm (Phakopsora Pachyrhizi) | pest or weed control at 200 ppm [3]
